Data reported in patent publication US12084472B2 (Ardelyx, Inc., priority 2015, dated 2024).
Where a name gives a salt, the structure may show the parent alone.

Each compound was assayed against T1, human TGR5 (Homo sapiens, UniProt Q8TDU6) (assay: Cell-based TGR5 assay (cAMP generation, HTRF)). Settings: HEK293 cells stably transfected with human TGR5; cAMP by HTRF; 30 minutes at 37° C.
T1 construct: expressed in transfected cells; host or cells: HEK293
T1 sequence (Q8TDU6 1-330): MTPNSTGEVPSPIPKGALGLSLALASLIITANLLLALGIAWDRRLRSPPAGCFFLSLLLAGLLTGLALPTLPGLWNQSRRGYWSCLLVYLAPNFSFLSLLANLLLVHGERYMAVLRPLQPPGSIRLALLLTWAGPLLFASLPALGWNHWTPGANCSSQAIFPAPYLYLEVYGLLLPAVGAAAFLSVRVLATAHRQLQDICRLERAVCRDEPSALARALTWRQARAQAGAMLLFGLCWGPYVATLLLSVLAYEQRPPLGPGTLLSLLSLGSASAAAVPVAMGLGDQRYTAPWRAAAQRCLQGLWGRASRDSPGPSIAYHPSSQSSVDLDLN
Outline: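 Read-out was HTRF detection of cAMP, converted to concentration via a standard curve and fitted (3-parameter logistic) for pEC50 and maximal response. Agonist stimulation used HEK293 cells stably transfected with human TGR5, incubated 30 min at 37° C in IBMX-containing buffer at 0.05 nM to 10 μM compound.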

Structure (SMILES)	pEC50 Human TGR5
CN(CCCCNC(=O)NCCOCCOCCNC(=O)NCCCCNC(=O)NCCOCCOCCNC(=O)NCCCCN(C)S(=O)(=O)c1ccc(Cl)c(COC2(c3cnccc3-c3ccccc3OC3CC3)CC2)c1)S(=O)(=O)c1ccc(Cl)c(COC2(c3cnccc3-c3ccccc3OC3CC3)CC2)c1 [Compound I-736, 3-(4-[N-methyl[4-chloro-3-([1-[4-(2-cyclopropoxyphenyl)pyridin-3-yl]cyclopropoxy]methyl)benzene]sulfonamido]butyl)-1-[2-(2-[2-[([4-[([2-[2-(2-[[(4-[N-methyl[4-chloro-3-([1-[4-(2-cyclopropoxyphenyl)pyridin-3-yl]cyclopropoxy]methyl)benzene]sulfonamido]butyl)carbamoyl]amino]ethoxy)ethoxy]ethyl]carbamoyl)amino]butyl]carbamoyl)amino]ethoxy]ethoxy)ethyl]urea]	B (B is a pEC50 of 6 to 6.9)

Same assay, conditions: HEK293 cells stably transfected with human TGR5; cAMP by HTRF; 30 minutes at 37° C.; read-out: pEC50 Human TGR5 (converted)

Structure (SMILES)	EC50
O=C(NCCCCCS(=O)(=O)c1ccc(Cl)c(COC2(c3cnccc3-c3ccccc3OC3CC3)CC2)c1)NC[C@H](O)[C@@H](O)[C@H](O)[C@H](O)CO [Compound I-640, 1-{5-[4-chloro-3-({1-[4-(2-cyclopropoxyphenyl)pyridin-3-yl]cyclopropoxy}methyl)benzenesulfonyl]pentyl}-3-[(2S,3R,4R,5R)-2,3,4,5,6-pentahydroxyhexyl]urea]	< 100 nM
C[C@@H](CCCN)c1ccc(Cl)c(CNC2(c3cnccc3-c3ccccc3OC3CC3)CC2)c1 (single isomer, unassigned) [Compound I-250]	< 100 nM
O=C(NCCCCc1cc(Cl)c(CNC2(c3cnccc3-c3ccccc3OC3COC3)CC2)cc1Cl)NC[C@H](O)[C@@H](O)[C@H](O)[C@H](O)CO [Compound I-174, 1-[4-(2,5-dichloro-4-([(1-{4-[2-(oxetan-3-yloxy)phenyl]pyridin-3-yl}cyclopropyl)amino]methyl)phenyl)butyl]-3-[(2S,3R,4R,5R)-2,3,4,5,6-pentahydroxyhexyl]urea]	126 to 1000 nM
O=C(NCCCCc1cc(Cl)c(COC2(c3cnccc3-c3ccccc3OC3COC3)CC2)cc1Cl)NC[C@H](O)[C@@H](O)[C@H](O)[C@H](O)CO [Compound I-193, 1-(4-{2,5-dichloro-4-[(1-{4-[2-(oxetan-3-yloxy)phenyl]pyridin-3-yl}cyclopropoxy)methyl]phenyl}butyl)-3-[(2S,3R,4R,5R)-2,3,4,5,6-pentahydroxyhexyl]urea]	< 100 nM
CC(=O)N1CCCN(S(=O)(=O)c2ccc(Cl)c(COC3(c4cnccc4-c4ccccc4OC4CC4)CC3)c2)CC1 [Compound I-732, 1-(4-[[4-chloro-3-([1-[4-(2-cyclopropoxyphenyl)pyridin-3-yl]cyclopropoxy]methyl)benzene]sulfonyl]-1,4-diazepan-1-yl)ethan-1-one]	< 100 nM
O=C1CCCN1CCCN(CCCCSc1ccc(Cl)c(COC2(c3cnccc3-c3ccccc3OC3CC3)CC2)c1)C(=O)[C@@H](O)[C@@H](O)[C@H](O)[C@@H](O)CO [Compound I-515, (2S,3S,4R,5S)-N-(4-{[4-chloro-3-({1-[4-(2-cyclopropoxyphenyl)pyridin-3-yl]cyclopropoxy}methyl)phenyl]sulfanyl}butyl)-2,3,4,5,6-pentahydroxy-N-[3-(2-oxopyrrolidin-1-yl)propyl]hexanamide]	< 100 nM
COC[C@H](O)CN(C[C@H](O)[C@@H](O)[C@H](O)[C@H](O)CO)C(=O)CCCCc1cc(Cl)c(COC2(c3cnccc3-c3ccccc3OC3CC3)CC2)cc1Cl [Compound I-124, 5-[2,5-dichloro-4-({1-[4-(2-cyclopropoxyphenyl)pyridin-3-yl]cyclopropoxy}methyl)phenyl]-N-[(2R)-2-hydroxy-3-methoxypropyl]-N-[(2S,3R,4R,5R)-2,3,4,5,6-pentahydroxyhexyl]pentanamide]	< 100 nM
O=C(CN1CCN(S(=O)(=O)c2ccc(Cl)c(COC3(c4cnccc4-c4ccccc4OC4CC4)CC3)c2)CC1)NC[C@H](O)[C@@H](O)[C@H](O)[C@H](O)CO [Compound I-440, 2-{4-[4-chloro-3-({1-[4-(2-cyclopropoxyphenyl)pyridin-3-yl]cyclopropoxy}methyl)benzenesulfonyl]piperazin-1-yl}-N-[(2S,3R,4R,5R)-2,3,4,5,6-pentahydroxyhexyl]acetamide]	126 to 1000 nM
CN(CC(=O)O)CC(=O)N(CCCCc1cc(Cl)c(COC2(c3cnccc3-c3ccccc3OC3CC3)CC2)cc1Cl)C[C@H](O)[C@@H](O)[C@H](O)[C@H](O)CO [Compound I-195, 2-{[({4-[2,5-dichloro-4-({1-[4-(2-cyclopropoxyphenyl)pyridin-3-yl]cyclopropoxy}methyl)phenyl]butyl}[(2S,3R,4R,5R)-2,3,4,5,6-pentahydroxyhexyl]carbamoyl)methyl](methyl)amino}acetic acid]	126 to 1000 nM
O=C(NCCCCCc1cc(Cl)c(CNC2(c3cnccc3-c3ccccc3OC3CC3)CC2)cc1Cl)NC[C@H](O)[C@@H](O)[C@H](O)[C@H](O)CO [Compound I-60, 1-(5-[2,5-dichloro-4-[([1-[4-(2-cyclopropoxyphenyl)pyridin-3-yl]cyclopropyl]amino)methyl]phenyl]pentyl)-3-[(2S,3R,4R,5R)-2,3,4,5,6-pentahydroxyhexyl]urea hydrochloride]	< 100 nM
COCCCN(C[C@H](O)[C@@H](O)[C@H](O)[C@H](O)CO)C(=O)CCCSc1ccc(Cl)c(COC2(c3cnccc3-c3ccccc3OC3CC3)CC2)c1 [Compound I-673, 4-{[4-chloro-3-({1-[4-(2-cyclopropoxyphenyl)pyridin-3-yl]cyclopropoxy}methyl)phenyl]sulfanyl}-N-(3-methoxypropyl)-N-[(2S,3R,4R,5R)-2,3,4,5,6-pentahydroxyhexyl]butanamide]	126 to 1000 nM
O=C(NC[C@H](O)[C@@H](O)[C@H](O)[C@H](O)CO)NC1CN(S(=O)(=O)c2ccc(Cl)c(COC3(c4cnccc4-c4ccccc4OC4CC4)CC3)c2)C1 [Compound I-427, 1-{1-[4-chloro-3-({1-[4-(2-cyclopropoxyphenyl)pyridin-3-yl]cyclopropoxy}methyl)benzenesulfonyl]azetidin-3-yl}-3-[(2S,3R,4R,5R)-2,3,4,5,6-pentahydroxyhexyl]urea]	126 to 1000 nM
Cc1cc(COC2(c3cnccc3-c3ccccc3OC3CC3)CC2)c(Cl)cc1CCCCNC(=O)N(C)C[C@H](O)[C@@H](O)[C@H](O)[C@H](O)CO [Compound I-167, 1-{4-[5-chloro-4-({1-[4-(2-cyclopropoxyphenyl)pyridin-3-yl]cyclopropoxy}methyl)-2-methylphenyl]butyl}-3-methyl-3-[(2S,3R,4R,5R)-2,3,4,5,6-pentahydroxyhexyl]urea]	< 100 nM
Cc1ccc(C(C)CCCC(=O)N(C[C@H](O)[C@@H](O)[C@H](O)[C@H](O)CO)C2CCOCC2)cc1CNC1(c2cnccc2-c2ccccc2OC2CC2)CC1 (stereo partly drawn) [Compound I-363, 5-{3-[({1-[4-(2-cyclopropoxyphenyl)pyridin-3-yl]cyclopropyl}amino)methyl]-4-methylphenyl}-N-(oxan-4-yl)-N-[(2S,3R,4R,5R)-2,3,4,5,6-pentahydroxyhexyl]hexanamide]	< 100 nM
CC(CCCC(=O)N(CCC(N)=O)C[C@H](O)[C@@H](O)[C@H](O)[C@H](O)CO)c1ccc(Cl)c(CNC2(c3cnccc3-c3ccccc3OC3CC3)CC2)c1 (stereo partly drawn) [Compound I-335, N-(2-carbamoylethyl)-5-{4-chloro-3-[({1-[4-(2-cyclopropoxyphenyl)pyridin-3-yl]cyclopropyl}amino)methyl]phenyl}-N-[(2S,3R,4R,5R)-2,3,4,5,6-pentahydroxyhexyl]hexanamide]	126 to 1000 nM
Cc1ccc(C(C)CCCCNC(=O)[C@@H](O)[C@@H](O)[C@H](O)[C@@H](O)CO)cc1COC1(c2cnccc2-c2ccccc2OC2CC2)CC1 (stereo partly drawn) [Compound I-312, (2S,3S,4R,5S)-N-{5-[3-({1-[4-(2-cyclopropoxyphenyl)pyridin-3-yl]cyclopropoxy}methyl)-4-methylphenyl]hexyl}-2,3,4,5,6-pentahydroxyhexanamide]	< 100 nM
O=C([C@@H](O)[C@@H](O)[C@H](O)[C@@H](O)CO)N(CCCCO)CCCCCSc1ccc(Cl)c(COC2(c3cnccc3-c3ccccc3OC3CC3)CC2)c1 [Compound I-605, (2S,3S,4R,5S)-N-(5-{[4-chloro-3-({1-[4-(2-cyclopropoxyphenyl)pyridin-3-yl]cyclopropoxy}methyl)phenyl]sulfanyl}pentyl)-2,3,4,5,6-pentahydroxy-N-(4-hydroxybutyl)hexanamide]	< 100 nM
CS(=O)(=O)NCCCCN(CCCSc1ccc(Cl)c(CNC2(c3cnccc3-c3ccccc3OC3CC3)CC2)c1)C(=O)[C@@H](O)[C@@H](O)[C@H](O)[C@@H](O)CO [Compound I-599, (2S,3S,4R,5S)-N-[3-({4-chloro-3-[({1-[4-(2-cyclopropoxyphenyl)pyridin-3-yl]cyclopropyl}amino)methyl]phenyl}sulfanyl)propyl]-2,3,4,5,6-pentahydroxy-N-(4-methanesulfonamidobutyl) hexanamide]	< 100 nM
CC(C)CN(CCCCNC(=O)N[C@@H](CO)[C@@H](O)[C@H](O)[C@H](O)CO)S(=O)(=O)c1ccc(Cl)c(COC2(c3cnccc3-c3ccccc3OC3CC3)CC2)c1 [Compound I-761, 4-chloro-3-((1-(4-(2-cyclopropoxyphenyl)pyridin-3-yl)cyclopropoxy)methyl)-N-isobutyl-N-(4-(3-((2S,3R,4S,5R)-1,3,4,5,6-pentahydroxyhexan-2-yl)ureido)butyl)benzenesulfonamide]	< 100 nM
